# Measured values published in patent US20090005384A1, “Method for Producing Adsorptive Porous Body” (Kowa Co., Ltd, priority 2005, published 2009).
# Columns and labels:
# [1] = Adsorption test to porous material; format: physicochemical; details: for Amount of adsorbed Compound A: shaken for two hours
# Method: To a solution prepared by completely dissolving 1.5 mg of Compound A in 1.5 mL of dichloromethane, 15 mg of porous material (light anhydrous silicic acid (Sylysia 350, produced by Fuji Silysia Chemical Co., Ltd.) or silicon dioxide (Sylysia 530, produced by Fuji Silysia Chemical Co., Ltd.) was dispersed, and this mixture was shaken for two hours using Roter RT-50 (TAITEC) and an amount of Compound A which adsorbed simply to the light anhydrous silicic acid or silicon dioxide (μg/mg porous material) was calculated by measuring the absorbance (280 nm) of a filtrate obtained by filtering with a membrane filter (0.45 μm PTFE). The amount of Compound A which adsorbed simply to the light anhydrous silicic acid or silicon dioxide ([…] porous material) was calculated by the following computational expression.
# Concentration of Compound A in the filtrate (μg/mL)=ABS÷Slope of analytical curve×Dilution ratio
# Here, ABS represents the absorbance.
# Amount of adsorbed Compound A (g/mg porous material)=(Concentration of Compound A before the porous material was dispersed (g/mL)−Concentration of Compound A in the filtrate (g/mL))×Volume of Compound A solution (mL)÷Mass of porous material (mg)
# Calculation was also conducted using ethanol in place of dichloromethane as a comparison.
# [2] = Differential scanning calorimetry analysis; format: physicochemical; details: when dichloromethane was used
# [3] = test system: interleukin-lp production; details: known from Patent Document 1; cited from earlier work
# [4] = cited from earlier work
smiles,measurement,setting,value
"CSc1ccc(-c2nn(Cc3ccccc3)c(=O)cc2-c2ccc(Cl)cc2)cc1 [Compound A, 2-benzyl-5-(4-chlorophenyl)-6-[4-(methylthio)phenyl]-2H-pyridazin-3-one]",Amount of adsorbed Compound A,"[1]; Dichloromethane, light anhydrous silicic acid (Sylysia 350)",17.6 μg/mg porous material
same,Amount of adsorbed Compound A,"[1]; Dichloromethane, silicon dioxide (Sylysia 530)",24.8 μg/mg porous material
same,Amount of adsorbed Compound A,"[1]; Ethanol, light anhydrous silicic acid (Sylysia 350)",0.0 μg/mg porous material
same,Amount of adsorbed Compound A,"[1]; Ethanol, silicon dioxide (Sylysia 530)",0.0 μg/mg porous material
same,Adsorption of Compound A to the porous material (in words),"[1]; dichloromethane, light anhydrous silicic acid",adsorbed
same,Adsorption of Compound A to the porous material (in words),"[1]; dichloromethane, silicon dioxide",adsorbed
same,Adsorption of Compound A to the porous material (in words),"[1]; ethanol, light anhydrous silicic acid",did not adsorb
same,Adsorption of Compound A to the porous material (in words),"[1]; ethanol, silicon dioxide",did not adsorb
same,Solid state of Compound A,[2],existed in amorphous state
same,interleukin-lp production suppressive effect,[3],excellent
same,Solubility in water,[4],extremely insoluble
